Experimental data reported in PubChem BioAssay AID248 (DTP/NCI, 2004).
Several values for one entry are separate records, joined by “and”; a condition that tells them apart may be missing. Identical values can stand only once. Inconclusive results and toxic doses are left out.

System: L1210 leukemia ip in BDF1 mice, survival T/C
Assay: NCI In Vivo Anticancer Drug Screen. Data for tumor model L1210 Leukemia (intraperitoneal) in B6D2F1 (BDF1) mice
Details: endpoint: mean survival time, higher = longer survival
Method in brief: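 Antitumor effect is assessed in tumor-bearing animals. Survival in the compound arm is compared with a vehicle-dosed control arm and expressed as their quotient.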

[1] = dose: 100.0 mg/kg/injection, schedule: Q04DX002 (ip), vehicle: saline with Tween-80
[2] = dose: 200.0 mg/kg/injection, schedule: Q04DX002 (ip), vehicle: saline with Tween-80
[3] = dose: 50.0 mg/kg/injection, schedule: Q04DX003 (ip), vehicle: saline with Tween-80
[4] = dose: 100.0 mg/kg/injection, schedule: Q04DX003 (ip), vehicle: saline with Tween-80
[5] = dose: 200.0 mg/kg/injection, schedule: Q04DX003 (ip), vehicle: saline with Tween-80
[6] = dose: 400.0 mg/kg/injection, schedule: Q04DX003 (ip), vehicle: saline with Tween-80
[7] = dose: 100.0 mg/kg/injection, schedule: Q04DX003 (ip), vehicle: Klucel (hydroxypropylcellulose) (HPC)
[8] = dose: 200.0 mg/kg/injection, schedule: Q04DX003 (ip), vehicle: Klucel (hydroxypropylcellulose) (HPC)
[9] = dose: 400.0 mg/kg/injection, schedule: Q04DX003 (ip), vehicle: Klucel (hydroxypropylcellulose) (HPC)
[10] = dose: 100.0 mg/kg/injection, schedule: Q01DX001 (ip), vehicle: saline
[11] = dose: 200.0 mg/kg/injection, schedule: Q01DX001 (ip), vehicle: saline
[12] = dose: 400.0 mg/kg/injection, schedule: Q01DX001 (ip), vehicle: saline

SMILES: CC1c2c(c3ccccc3n2C)CC[N+]1(C)C (stereo unspecified)
- T/C (dose: 12.5 mg/kg/injection, schedule: Q01DX009 (ip), vehicle: carboxymethylcellulose (CMC)): 109 % of control and 88 % of control
- T/C (dose: 25.0 mg/kg/injection, schedule: Q01DX009 (ip), vehicle: carboxymethylcellulose (CMC)): 115 % of control and 86 % of control
- T/C (dose: 25.0 mg/kg/injection, schedule: Q04DX002 (ip), vehicle: carboxymethylcellulose (CMC)): 102 % of control and 103 % of control
- T/C (dose: 25.0 mg/kg/injection, schedule: Q04DX003 (ip), vehicle: carboxymethylcellulose (CMC)): 102 % of control
- T/C (dose: 50.0 mg/kg/injection, schedule: Q01DX009 (ip), vehicle: carboxymethylcellulose (CMC)): 94 % of control and 88 % of control
- T/C (dose: 50.0 mg/kg/injection, schedule: Q04DX002 (ip), vehicle: carboxymethylcellulose (CMC)): 94 % of control and 99 % of control
- T/C (dose: 50.0 mg/kg/injection, schedule: Q04DX003 (ip), vehicle: carboxymethylcellulose (CMC)): 105 % of control
- T/C (dose: 100.0 mg/kg/injection, schedule: Q04DX003 (ip), vehicle: carboxymethylcellulose (CMC)): 116 % of control

SMILES: COc1ccc(C=Nc2ccc(C(=O)O)cc2)cc1
- T/C [1]: 100 % of control
- T/C [2]: 110 % of control
- T/C (dose: 400.0 mg/kg/injection, schedule: Q04DX002 (ip), vehicle: saline with Tween-80): 89 % of control

SMILES: O=C(Nc1ccccc1)c1ccc(C(F)(F)F)cc1O
- T/C [1]: 105 % of control
- T/C [2]: 103 % of control

SMILES: CCOC(=O)N1CCN(Cn2cc3c4c(cccc42)C2CC(C(=O)NC(C)C)CN(C)C2C3)CC1 (stereo unspecified)
- T/C (dose: 6.25 mg/kg/injection, schedule: Q04DX003 (ip), vehicle: saline): 88 % of control
- T/C (dose: 12.5 mg/kg/injection, schedule: Q04DX003 (ip), vehicle: saline): 97 % of control
- T/C (dose: 25.0 mg/kg/injection, schedule: Q04DX003 (ip), vehicle: saline): 100 % of control
- T/C (dose: 50.0 mg/kg/injection, schedule: Q04DX003 (ip), vehicle: saline): 94 % of control
- T/C (dose: 100.0 mg/kg/injection, schedule: Q04DX003 (ip), vehicle: saline): 97 % of control

SMILES: CC[C@@]1(O)C(=O)OCc2c1cc1n(c2=O)Cc2cc3c(OC)cccc3nc2-1
- T/C (dose: 0.25 mg/kg/injection, schedule: Q01DX009 (ip), vehicle: saline with Tween-80): 122 % of control
- T/C (dose: 0.5 mg/kg/injection, schedule: Q01DX009 (ip), vehicle: carboxymethylcellulose (CMC)): 120 % of control
- T/C (dose: 0.5 mg/kg/injection, schedule: Q01DX009 (ip), vehicle: saline with Tween-80): 122 % of control
- T/C (dose: 1.0 mg/kg/injection, schedule: Q01DX009 (ip), vehicle: carboxymethylcellulose (CMC)): 107 % of control
- T/C (dose: 1.0 mg/kg/injection, schedule: Q01DX009 (ip), vehicle: saline with Tween-80): 162 % of control
- T/C (dose: 4.0 mg/kg/injection, schedule: Q01DX009 (ip), vehicle: carboxymethylcellulose (CMC)): 88 % of control
- T/C (dose: 4.0 mg/kg/injection, schedule: Q04DX003 (ip), vehicle: saline with Tween-80): 173 % of control
- T/C (dose: 8.0 mg/kg/injection, schedule: Q04DX003 (ip), vehicle: saline with Tween-80): 215 % of control
- T/C (dose: 12.5 mg/kg/injection, schedule: Q04DX003 (ip), vehicle: saline with Tween-80): 123 % of control
- T/C (dose: 25.0 mg/kg/injection, schedule: Q04DX003 (ip), vehicle: saline with Tween-80): 96 % of control
- T/C [3]: 93 % of control

SMILES: CCOc1cc(N2CCOCC2)c(OCC)cc1N
- T/C (dose: 6.0 mg/kg/injection, schedule: Q01DX009 (ip), vehicle: saline): 103 % of control
- T/C (dose: 12.0 mg/kg/injection, schedule: Q01DX009 (ip), vehicle: saline): 100 % of control
- T/C (dose: 12.0 mg/kg/injection, schedule: Q04DX003 (ip), vehicle: other): 100 % of control
- T/C (dose: 25.0 mg/kg/injection, schedule: Q01DX009 (ip), vehicle: saline): 94 % of control
- T/C (dose: 25.0 mg/kg/injection, schedule: Q04DX003 (ip), vehicle: other): 95 % of control

SMILES: CC1(C)N=C(N)N=C(N)N1c1cccc(OCCOc2cccc([N+](=O)[O-])c2)c1
- T/C (dose: 5.0 mg/kg/injection, schedule: Q01DX001 (ip), vehicle: saline): 105 % of control
- T/C (dose: 10.0 mg/kg/injection, schedule: Q01DX001 (ip), vehicle: saline): 102 % of control
- T/C (dose: 20.0 mg/kg/injection, schedule: Q01DX001 (ip), vehicle: saline): 103 % of control
- T/C (dose: 40.0 mg/kg/injection, schedule: Q01DX001 (ip), vehicle: saline): 100 % of control
- T/C (dose: 80.0 mg/kg/injection, schedule: Q01DX001 (ip), vehicle: saline): 100 % of control

SMILES: CCCCCC(=O)NNc1ccccc1
- T/C (dose: 50.0 mg/kg/injection, schedule: Q04DX002 (ip), vehicle: Klucel (hydroxypropylcellulose) (HPC)): 104 % of control
- T/C (dose: 100.0 mg/kg/injection, schedule: Q04DX002 (ip), vehicle: Klucel (hydroxypropylcellulose) (HPC)): 104 % of control
- T/C (dose: 200.0 mg/kg/injection, schedule: Q04DX002 (ip), vehicle: Klucel (hydroxypropylcellulose) (HPC)): 111 % of control
- T/C (dose: 400.0 mg/kg/injection, schedule: Q04DX002 (ip), vehicle: Klucel (hydroxypropylcellulose) (HPC)): 104 % of control

SMILES: Cc1ccc(CN(C)N=Nc2ccc(C#N)cc2)cc1
- T/C [4]: 96 % of control
- T/C [5]: 87 % of control
- T/C [6]: 94 % of control

SMILES: CCOC(=O)c1c(-c2cc(OC)c(OC)c(OC)c2)csc1N
- T/C [3]: 95 % of control
- T/C [4]: 97 % of control
- T/C [5]: 87 % of control
- T/C [6]: 94 % of control

SMILES: COC(OC)c1cc(S)[nH]c(=O)c1F
- T/C [7]: 98 % of control
- T/C [8]: 97 % of control
- T/C [9]: 103 % of control

SMILES: Cc1ccc(S(=O)(=O)N/N=C/C(O)C(O)C(O)C(O)CO)cc1 (stereo unspecified)
- T/C (dose: 100.0 mg/kg/injection, schedule: Q01DX009 (ip), vehicle: saline with Tween-80): 102 % of control
- T/C (dose: 200.0 mg/kg/injection, schedule: Q01DX009 (ip), vehicle: saline with Tween-80): 102 % of control
- T/C (dose: 400.0 mg/kg/injection, schedule: Q01DX009 (ip), vehicle: saline with Tween-80): 100 % of control

SMILES: [I][Bi]([I])[I]
- T/C (dose: 50.0 mg/kg/injection, schedule: Q01DX001 (ip), vehicle: carboxymethylcellulose (CMC)): 114 % of control
- T/C (dose: 100.0 mg/kg/injection, schedule: Q01DX001 (ip), vehicle: carboxymethylcellulose (CMC)): 105 % of control
- T/C [10]: 108 % of control
- T/C (dose: 200.0 mg/kg/injection, schedule: Q01DX001 (ip), vehicle: carboxymethylcellulose (CMC)): 102 % of control
- T/C [11]: 94 % of control
- T/C [12]: 97 % of control

SMILES: Nc1c(Cl)cc(Cl)c2ccc([N+](=O)[O-])cc12
- T/C (dose: 100.0 mg/kg/injection, schedule: Q01DX009 (ip), vehicle: Klucel (hydroxypropylcellulose) (HPC)): 93 % of control
- T/C [7]: 103 % of control
- T/C (dose: 200.0 mg/kg/injection, schedule: Q01DX009 (ip), vehicle: Klucel (hydroxypropylcellulose) (HPC)): 107 % of control
- T/C [8]: 93 % of control
- T/C (dose: 400.0 mg/kg/injection, schedule: Q01DX009 (ip), vehicle: Klucel (hydroxypropylcellulose) (HPC)): 95 % of control
- T/C [9]: 93 % of control

SMILES: CCCC#CCOCC1CO1 (stereo unspecified)
- T/C (dose: 100.0 mg/kg/injection, schedule: Q01DX009 (ip), vehicle: saline): 93 % of control
- T/C (dose: 100.0 mg/kg/injection, schedule: Q04DX003 (ip), vehicle: saline sonified): 98 % of control
- T/C (dose: 200.0 mg/kg/injection, schedule: Q01DX009 (ip), vehicle: saline): 89 % of control
- T/C (dose: 200.0 mg/kg/injection, schedule: Q04DX003 (ip), vehicle: saline sonified): 109 % of control
- T/C (dose: 400.0 mg/kg/injection, schedule: Q01DX009 (ip), vehicle: saline): 91 % of control
- T/C (dose: 400.0 mg/kg/injection, schedule: Q04DX003 (ip), vehicle: saline sonified): 104 % of control

SMILES: Clc1ccc(N2CCNCC2)cc1
- T/C (dose: 75.0 mg/kg/injection, schedule: Q01DX001 (ip), vehicle: saline): 101 % of control

SMILES: COC(c1ccccc1)C(OC)c1ccccc1 (stereo unspecified)
- T/C (dose: 50.0 mg/kg/injection, schedule: Q04DX003 (ip), vehicle: Klucel (hydroxypropylcellulose) (HPC)): 96 % of control
- T/C [10]: 109 % of control
- T/C [7]: 98 % of control
- T/C [11]: 94 % of control
- T/C [8]: 98 % of control
- T/C [12]: 103 % of control
